Source: patent publication US20120178147A1, “MICROBIAL CULTURES AND METHODS FOR ANAEROBIC BIOREMEDIATION” (priority 2009, published 2012)
Read-outs that look alike come from different tables or passages of the source.

Experiments:
[1] = system: Dehalococcoides; experiment: qRT-PCR of Dehalococcoides 16S rRNA genes in BDI cultures; format: cell-based; conditions: for effect on growth of Dehalococcoides in BDI cultures: 1.5 μM TCC or 35 μM TCS; for Dehalococcoides 16S rRNA gene copies, day 27 / Dehalococcoides 16S rRNA gene copies, initial: BDI with 1.5 μM TCC or 35 μM TCS
Method: (§1) Quantitative real-time PCR (qRT-PCR) was performed for enumeration of general 16S rRNA genes and Dehalococcoides 16S rRNA genes in culture DehaloR̂2 and Bio-Dechlor INOCULUM. The primers used for general 16S rRNA genes were Bac1055F (5′-ATG GYT GTC GTC ACCT-3′) and Bac1392R (5′-ACG GGC GGT GTG TAC-3′) (Ritalahti et al., 2006), and the probe was Bac16sTaq (FAM-CAA CGA GCG CAA CCC/3-BHQ-1/). The final volume of PCR reactions was 10 μL, and the final concentration of each chemical in a single reaction tube was: 1× RealMasterMix (Fisher Scientific, Pittsburgh, Pa.), 300 nM Probe, 300 nM each Primer, and 130 nM DNA samples. The PCR conditions were as follows: 2 min at 95° C. followed by 40 cycles of 10 s at 95° C., 20 s at 56° C. and 20 s at 68° C. The primers used for Dehalococcoides 16S rRNA genes were Dhc1200F (5′-CTGGAGCTAATCCCCAAAGCT-3′) and Dhc1271R (5′-CAA CTT CAT GCA GGC GGG-3′), and the probe was Dhc1240Pr (FAM-TCCTCAGTTCGGATTGCAGGC TGAA/3-BHQ-1) (He et al., 2003b). The final volume of PCR reactions was 10 μL, and the final concentration of each chemical in a single reaction tube was: 1× RealMasterMix (Fisher Scientific, Pittsburgh, Pa.), 200 nM Probe, 700 nM each Primer, and 130 nM DNA samples. The PCR conditions were as follows: 2 min at 95° C. followed by 40 cycles of 15 s at 95° C., 20 s at 58° C. and 20 s at 68° C.
(§2) Quantitative Real time PCR (qRT-PCR) was carried out in a spectrofluorimetric thermal cycler (Master cycler, epgradient S, Eppendorf). Calibration curves were performed in triplicate and a linear range of 6 orders of magnitude was obtained. Plasmids containing Dehalococcoides strain BAV1 16S rRNA genes were used as standards to construct general 16S rRNA genes and Dehalococcoides 16S rRNA genes calibration curves. The slopes of the calibration curves for general 16S rRNA genes and Dehalococcoides 16S rRNA genes were −3.46 and −3.94, and the Y intercepts were 38 and 44.2, respectively.
(§3) DNA Extraction and Quantitative Real-Time PCR. The BDI cultures and DehaloR^2 cultures were shaken vigorously first and then 10 ml of the mixed liquid was removed with a sterile syringe and dispensed into 10 1.5 ml micro centrifuge tubes. These micro centrifuge tubes were then centrifuged at 13,000 rpm for 15 min in order to make a pellet, and the pellet was used for DNA extraction. Qiagen DNeasy Blood & Tissue Kit with modifications to enhance lysis was used for DNA isolation from cultures. DNA samples were stored at −20° C.
(§4) Quantitative real-time PCR (qRT-PCR) was performed for enumeration of general 16S rRNA genes and Dehalococcoides 16S rRNA genes in BDI culture without TCC&TCS, BDI culture with 1.5 μM TCC, BDI culture with 35 μM TCS, D DehaloR̂2 culture without TCC&TCS, DehaloR^2 culture with 1.5 μM TCC and DehaloR̂2^2 culture with 35 μM TCS.
The primers used for Dehalococcoides 16S rRNA genes were Dhc1200F (5′-[…]-3′) and Dhc1271R (5′-CAACTTCATGCAGGCGGG-3′), and the probe was Dhc1240Pr (FAM-[…]/3-BHQ-1) (He et al., 2003b). The final volume of PCR reactions was 10 μL, and the final concentration of each chemical in a single reaction tube was: 1× RealMasterMix (Fisher Scientific, Pittsburgh, Pa.), 200 nM Probe, 700 nM each Primer, and 130 nM DNA samples. The PCR conditions were as follows: 2 min at 95° C. followed by 40 cycles of 15 s at 95° C., 20 s at 58° C. and 20 s at 68° C.
The qRT-PCR was carried out in a spectrofluorimetric thermal cycler (Master cycler, epgradient S, Eppendorf). Calibration curves were performed in triplicate and a linear range of 6 orders of magnitude was obtained. Plasmids containing Dehalococcoides strain BAV1 16S rRNA genes were used as standards to construct general 16S rRNA genes and Dehalococcoides 16S rRNA genes calibration curves. The slopes of the calibration curves for general 16S rRNA genes and Dehalococcoides 16S rRNA genes were −3.46 and −3.94, and the Y intercepts were 38 and 44.2, respectively.

[2] = cited from earlier work
[3] = system: general bacteria; experiment: qRT-PCR of general bacteria 16S rRNA genes in DehaloR̂2 cultures; format: cell-based; conditions: for General bacteria 16S rRNA gene copies, day 22 / General bacteria 16S rRNA gene copies, initial: DehaloR̂2 with 1.5 μM TCC or 35 μM TCS
Method: as §1, §2, §3, §4
The primers used for general 16S rRNA genes were Bac1055F (5′-ATGGYTGTCGTCAGCT-3′) and Bac1392R (5′-ACGGGCGGTGTGTAC-3′) (Ritalahti et al., 2006), and the probe was Bac16sTaq (FAM-CAACGAGCGCAACCC/3-BHQ-1/). The final volume of PCR reactions was 10 μL, and the final concentration of each chemical in a single reaction tube was: 1× RealMasterMix (Fisher Scientific, Pittsburgh, Pa.), 300 nM Probe, 300 nM each Primer, and 130 nM DNA samples. The PCR conditions were as follows: 2 min at 95° C. followed by 40 cycles of 10 s at 95° C., 20 s at 56° C. and 20 s at 68° C.
The qRT-PCR was carried out in a spectrofluorimetric thermal cycler (Master cycler, epgradient S, Eppendorf). […]

[4] = system: general bacteria; experiment: qRT-PCR of general bacteria 16S rRNA genes in BDI cultures; format: cell-based; conditions: BDI with 1.5 μM TCC or 35 μM TCS
Method: as §1, §2, §3
Quantitative real-time PCR (qRT-PCR) was performed for enumeration of general 16S rRNA genes and Dehalococcoides 16S rRNA genes in BDI culture without TCC&TCS, BDI culture with 1.5 μM TCC, BDI culture with 35 μM TCS, D DehaloR̂2 culture without TCC&TCS, DehaloR^2 culture with 1.5 μM TCC and DehaloR̂2^2 culture with 35 μM TCS. […]

[5] = at 25° C., table values calculated using PBT Profiler and ECOSAR

Row | Structure (SMILES) | effect on growth of Dehalococcoides in BDI cultures [1] | Dehalococcoides 16S rRNA gene copies, day 27 [1] | Dehalococcoides 16S rRNA gene copies, initial [1] | Water solubility ([2]; at 20° C.) | Water solubility [2, 5] | Water solubility ([2]; at 25° C., table values calculated using PBT Profiler and ECOSAR, listed as Triclocarban) | General bacteria 16S rRNA gene copies, day 22 [3] | General bacteria 16S rRNA gene copies, initial [3] | General bacteria 16S rRNA gene copies, day 27 [4] | General bacteria 16S rRNA gene copies, initial [4] | Water solubility ([2]; at 25° C., table values calculated using PBT Profiler and ECOSAR, listed as Triclosan) | General bacteria 16S rRNA gene copies, day 22 relative to initial ([3]; DehaloR̂2 with 35 μM TCS)
1 | O=C(Nc1ccc(Cl)cc1)Nc1ccc(Cl)c(Cl)c1 [TCC, 3-(4-chlorophenyl)-1-(3,4-dichlorphenyl) urea] | significantly inhibited the growth of Dehalococcoides | 1.9×10^7 gene copies/ml | 6.1×10^7 gene copies/ml | 0.05 µg/mL | 0.65 µg/mL | 0.65 to 1.55 µg/mL | 1.6×10^8 gene copies/ml | 1.3×10^7 gene copies/ml | 1.4×10^8 gene copies/ml | 7.2×10^7 gene copies/ml | – | –
2 | Oc1cc(Cl)ccc1Oc1ccc(Cl)cc1Cl [TCS, 5-chloro-2-[2,4-dichloro-phenoxy]-phenol] | significantly inhibited the growth of Dehalococcoides | 9.4×10^6 gene copies/ml | 8.9×10^7 gene copies/ml | <1 µg/mL | 4.6 µg/mL | – | 7.5×10^7 gene copies/ml | 2.2×10^7 gene copies/ml | 3.3×10^8 gene copies/ml | 1.0×10^8 gene copies/ml | 1.97 to 4.62 µg/mL | 3.5 times
